Test results reported in patent US11497738B2, “Di-substituted pyrazole compounds for the treatment of diseases” (FGH BIOTECH, INC., priority 2016, dated 2022).

Tested on: SCD1 expression
Test: Inhibition assay: qPCR of SCD1 expression in HepG2 cells (Biological Example 1)
Format: cell-based
Conditions: Homo sapiens, 24 hours; for inhibition at 10 µM: read-out: Inhibition Percentage (%) 10 μM (SCD1 expression); for inhibition at 1 µM: read-out: Inhibition Percentage (%) 1 μM (SCD1 expression)
Description: HepG2 cells were grown in Dulbecco's Modified Eagle Medium (DMEM) containing 5% FBS and antibiotic-antimycotic in a humidified incubator at 37° C. with 5% CO2. All three components were purchased from ThermoFisher Scientific (Catalog numbers are 11995073, 26140079, and 15240062, respectively). Treatments were done in duplicates for each dose of each compound. For control and treated each treatment, 400,000 HepG2 cells were seeded onto 1 well of 24-well plate. After one day in culture, cells were treated with the test compound (1 μM and/or 10 μM, as indicated below in Table 1) for 24 hours in DMEM with 5% FBS. Compounds were diluted using DMSO from 20 mM stocks. Total RNAs were extracted using RNA extraction kit (Cat #: 45001163, Fisher Scientific) or Trizol. If Trizol was used, RNAs were treated with DNase I (cat #: 18068015, ThermoFisher Scientific) before qPCR. RNA concentrations were measured on a Nanodrop. One-step qPCR were performed using SYBR Green One Step qPCR Kit (Cat #: B25002, Biotool). 10 ng RNA was used in each 10-ul reaction. Triplicate reactions were done for each RNA sample. qPCR was performed on an ABI StepOnePlus using the program: Holding stage step 1, 50° C. 3 min, step 2, 95° C. 5 min; Cycling stage (40 cycles) step 1, 95° C. 10 sec, step 2, 60° C. 30 sec. Primer sequence was as follows: SCD1, 5′-[…]-3′/5′-[…]-3′.
All data was measured in HepG2 cells. % inhibition data of SCD1 expression are provided in Table 1. % inhibition at 10 μM is provided as follows: A≥75%; 75%>B≥50%; 50%>C≥10%. % inhibition at 1 μM is provided as follows: A1≥30%; 30%>B1≥2%. NI means no inhibition in the assay at the indicated concentration of compound tested. NT means not tested.

| Structure (SMILES) | inhibition at 10 µM | inhibition at 1 µM |
| --- | --- | --- |
| CCCc1cc(-n2cc(-c3ccc(NS(=O)(=O)C4CC4)cn3)cn2)ccn1 [Example 18, N-(6-(1-(2-propylpyridin-4-yl)-1H-pyrazol-4-yl)pyridin-3-yl)cyclopropanesulfonamide] | > 75% |  |
| CCCc1cc(-n2cc(-c3ccc(NS(=O)(=O)CC4CC4)cn3)cn2)ccn1 [Example 19, 1-cyclopropyl-N-(6-(1-(2-propylpyridin-4-yl)-1H-pyrazol-4-yl)pyridin-3-yl)methanesulfonamide] | > 75% | 2 to 30% |
| CCCc1cc(-n2cc(-c3ccc(NS(C)(=O)=O)cn3)cn2)ccn1 [Example 20, N-(6-(1-(2-propylpyridin-4-yl)-1H-pyrazol-4-yl)pyridin-3-yl)methanesulfonamide] | 10 to 50% |  |
| CCCc1cc(-n2cc(-c3ccc(NC(C)C)cn3)cn2)ccn1 [Example 21, N-isopropyl-6-(1-(2-propylpyridin-4-yl)-1H-pyrazol-4-yl)pyridin-3-amine] | > 75% | 2 to 30% |
| CCCc1cc(-n2cc(-c3ccc(NC4CCCC4)cn3)cn2)ccn1 [Example 23, N-cyclopentyl-6-(1-(2-propylpyridin-4-yl)-1H-pyrazol-4-yl)pyridin-3-amine] | > 75% | 2 to 30% |
| CCCc1cc(-n2cc(-c3ncc(NC(C)C)cc3Cl)cn2)ccn1 [Example 24, 5-chloro-N-isopropyl-6-(1-(2-propylpyridin-4-yl)-1H-pyrazol-4-yl)pyridin-3-amine] | > 75% | ≥ 30% |
| CCCc1cc(-n2cc(-c3ncc(NC4CCCC4)cc3Cl)cn2)ccn1 [Example 25, 5-chloro-N-cyclopentyl-6-(1-(2-propylpyridin-4-yl)-1H-pyrazol-4-yl)pyridin-3-amine] | > 75% | ≥ 30% |
| CCCc1cc(-n2cc(-c3ncc(NCC(C)C)cc3Cl)cn2)ccn1 [Example 26, 5-chloro-N-isobutyl-6-(1-(2-propylpyridin-4-yl)-1H-pyrazol-4-yl)pyridin-3-amine] | > 75% | ≥ 30% |
| CCCc1cc(-n2cc(-c3ncc(NCC4CC4)cc3Cl)cn2)ccn1 [Example 27, 5-chloro-N-(cyclopropylmethyl)-6-(1-(2-propylpyridin-4-yl)-1H-pyrazol-4-yl)pyridin-3-amine] | > 75% | ≥ 30% |
| CCCc1cc(-n2cc(-c3ncc(NS(=O)(=O)C4CC4)cc3Cl)cn2)ccn1 [Example 28, N-(5-chloro-6-(1-(2-propylpyridin-4-yl)-1H-pyrazol-4-yl)pyridin-3-yl)cyclopropanesulfonamide] | > 75% | 2 to 30% |
| CCCc1cc(-n2cc(-c3ncc(NS(=O)(=O)CC4CC4)cc3Cl)cn2)ccn1 [Example 29, N-(5-chloro-6-(1-(2-propylpyridin-4-yl)-1H-pyrazol-4-yl)pyridin-3-yl)-1-cyclopropylmethanesulfonamide] | > 75% | 2 to 30% |
| CCCc1cc(-n2cc(-c3ncc(NS(C)(=O)=O)cc3Cl)cn2)ccn1 [Example 30, N-(5-chloro-6-(1-(2-propylpyridin-4-yl)-1H-pyrazol-4-yl)pyridin-3-yl)methanesulfonamide] | 50 to 75% |  |
| CCCc1cc(-n2cc(-c3ccc(NC4CCCC4)nc3)cn2)ccn1 [Example 32, N-cyclopentyl-5-(1-(2-propylpyridin-4-yl)-1H-pyrazol-4-yl)pyridin-2-amine] | > 75% |  |
| CCCc1cc(-n2cc(-c3ccc(NC4CCC4)nc3)cn2)ccn1 [Example 33, N-cyclobutyl-5-(1-(2-propylpyridin-4-yl)-1H-pyrazol-4-yl)pyridin-2-amine] | > 75% | ≥ 30% |
| CCCc1cc(-n2nc(C)c(-c3ccc(NCC(C)C)nc3)c2C)ccn1 [Example 34, 5-(3,5-dimethyl-1-(2-propylpyridin-4-yl)-1H-pyrazol-4-yl)-N-isobutylpyridin-2-amine] | 50 to 75% | 2 to 30% |
| CCCc1cc(-n2nc(C)c(-c3ccc(NCC4CC4)nc3)c2C)ccn1 [Example 35, N-(cyclopropylmethyl)-5-(3,5-dimethyl-1-(2-propylpyridin-4-yl)-1H-pyrazol-4-yl)pyridin-2-amine] | 50 to 75% | 2 to 30% |
| CCCc1cc(-n2nc(C)c(-c3ccc(NC(C)C)nc3)c2C)ccn1 [Example 36, 5-(3,5-dimethyl-1-(2-propylpyridin-4-yl)-1H-pyrazol-4-yl)-N-isopropylpyridin-2-amine] | 50 to 75% |  |
| CCCc1cc(-n2nc(C)c(-c3ccc(NC4CCC4)nc3)c2C)ccn1 [Example 38, N-cyclobutyl-5-(3,5-dimethyl-1-(2-propylpyridin-4-yl)-1H-pyrazol-4-yl)pyridin-2-amine] | > 75% | ≥ 30% |
| CCCc1cc(-n2nc(C)c(-c3ccc(NS(=O)(=O)C(F)(F)F)nc3)c2C)ccn1 [Example 39, N-(5-(3,5-dimethyl-1-(2-propylpyridin-4-yl)-1H-pyrazol-4-yl)pyridin-2-yl)-1,1,1-trifluoromethanesulfonamide] | 10 to 50% | 2 to 30% |
| CCCc1cc(-n2nc(C)c(-c3ccc(NC4CCCC4)nc3)c2C)ccn1 [Example 40, N-cyclopentyl-5-(3,5-dimethyl-1-(2-propylpyridin-4-yl)-1H-pyrazol-4-yl)pyridin-2-amine] | 50 to 75% | ≥ 30% |
| CCCn1cc(-n2cc(-c3ccc(NC(C)C)nc3)cn2)ccc1=O [Example 44, 5-(4-(6-(isopropylamino)pyridin-3-yl)-1H-pyrazol-1-yl)-1-propylpyridin-2(1H)-one] | > 75% | 2 to 30% |
| CCCn1cc(-n2cc(-c3ccc(NS(C)(=O)=O)cc3)cn2)ccc1=O [Example 45, N-(4-(1-(6-oxo-1-propyl-1,6-dihydropyridin-3-yl)-1H-pyrazol-4-yl)phenyl)methanesulfonamide] | > 75% | ≥ 30% |
| CCCc1cccc(-n2cc(-c3ccc(NS(C)(=O)=O)cc3)cn2)c1 [Example 47, N-(4-(1-(3-propylphenyl)-1H-pyrazol-4-yl)phenyl)methanesulfonamide] | 10 to 50% |  |
| CCCc1cc(-n2cc(-c3ccc(NC4CCOCC4)nc3)cn2)ccn1 [Example 52, 5-(1-(2-propylpyridin-4-yl)-1H-pyrazol-4-yl)-N-(tetrahydro-2H-pyran-4-yl)pyridin-2-amine] | > 75% | ≥ 30% |
| CCCc1cc(-n2cc(-c3ccc(NCC(C)C)nc3)c(C)n2)ccn1 [Example 53, N-isobutyl-5-(3-methyl-1-(2-propylpyridin-4-yl)-1H-pyrazol-4-yl)pyridin-2-amine] | > 75% | 2 to 30% |
| CCCc1cc(-n2cc(-c3ccc(NCC4CC4)nc3)c(C)n2)ccn1 [Example 54, N-(cyclopropylmethyl)-5-(3-methyl-1-(2-propylpyridin-4-yl)-1H-pyrazol-4-yl)pyridin-2-amine] | 50 to 75% |  |
| CCCc1cc(-n2cc(-c3ccc(NC4CCCC4)nc3)c(C)n2)ccn1 [Example 55, N-cyclopentyl-5-(3-methyl-1-(2-propylpyridin-4-yl)-1H-pyrazol-4-yl)pyridin-2-amine] | > 75% | 2 to 30% |
| CCCc1cc(-n2cc(-c3ccc(NC(C)C)nc3)c(C)n2)ccn1 [Example 56, N-isopropyl-5-(3-methyl-1-(2-propylpyridin-4-yl)-1H-pyrazol-4-yl)pyridin-2-amine] | > 75% | 2 to 30% |
| CCCc1cc(-n2cc(-c3ccc(NC4CCC4)nc3)c(C)n2)ccn1 [Example 57, N-cyclobutyl-5-(3-methyl-1-(2-propylpyridin-4-yl)-1H-pyrazol-4-yl)pyridin-2-amine] | > 75% | 2 to 30% |
